Tests used:
[1] = tested on: IL-6, IL-22, IL-33 cytokine proteins; assay: Cytokine & chemokine antibody microarray protein chip of DNCB skin tissue; type: in vivo, balb/c mice; settings: 1% DNCB and 1 μM vs DNCB only; within threshold 1±0.1
Excerpt: A. Preparation of tissue samples: The mouse skin tissue was frozen in liquid nitrogen and then finely ground in a mortar. Liquid nitrogen was intermittently added to prevent the tissue from being thawed. The finely ground skin tissue was placed in lysis M buffer to prepare a tissue sample lysate.
B. Fluorescent labeling of tissue lysates: Proteins were extracted from each of the tissue lysate treated with the sample for a certain period of time and an untreated tissue lysate (Lysis M extraction solution, Roche) and labeled with a fluorescent material (Cy3 or Cy5) (GE Healthcare). First, the amount of protein from each tissue lysate was adjusted to be at least 1 mg, and then coupling buffer (0.1M sodium carbonate buffer, pH 9.3) was added and mixed well. Cy3 and Cy5 dyes were added to each tissue lysate to which the coupling buffer had been added and mixed well for labeling at 4° C. for 16 hours. A control treated only with DNCB was labeled with Cy3 and Cy5, and the experimental groups treated with the sample were also labeled with Cy3 and Cy5. After labeling with the fluorescent dyes, free dyes were removed using a Post-reactive Spin column (Sigma).
C. Fabrication of antibody microarrays: ProteoChip™ (Proteogen, Inc., Seoul, Korea) was used as a protein chip, and antibody microarrays were fabricated by spotting antibodies against 26 proteins in cells on a substrate immobilized with 200 μg/ml of protein A on the ProteoChip™. First, the antibodies were diluted to 100 μg/ml with phosphate buffer containing 30% glycerol and the antibody arrays were fixed overnight at 4° C. […]
D. Hybridization of antibody arrays: Tissue lysates labeled with fluorescent materials were quantified (Bradford method), and 30 μg of each fluorescently labeled samples were mixed in 10 ml of a reaction solution. […] Each slide was analyzed using a fluorescent microarray scanner. […] The ratio of Cy5 to Cy3 in each spot was calculated using a software (Genepix 6.0). The INR values were calculated by sample-Cy5/control-Cy3×sample-Cy3/control-Cy5. […]

[2] = tested on: balb/c mice with DNCB-induced atopic dermatitis; assay: DNCB-induced atopic dermatitis model; type: in vivo; settings: DNCB-applied balb/c mice, concentration of 0.011 μM (so in the source)
[3] = tested on: balb/c mice with DNCB-induced atopic dermatitis; assay: DNCB-induced atopic dermatitis model; type: in vivo; settings: for epidermal thickness: DNCB group 87.1±13.0, normal 24.5±10.3; for number of mast cells in skin tissue: applied 3 weeks; for blood IgE level: DNCB group 790.0±151.8
Excerpt: (5) Reverse transcription-polymerase chain reaction (RT-PCR) quantitative real time PCR: Total RNA was isolated from cells and tissues, and cDNA was synthesized using a reverse transcriptase and was then reacted with cytokine primers to be analyzed, followed by PCR and real-time PCR. The RT-PCR products were subjected to electrophoresis using 1.5% agarose gel for analysis.
A. Experimental animal: 5-week-old male BALB/c mice obtained from. Daehan Biolink (Eumseong, Chungbuk) were adapted for 2 weeks in a clean animal breeding room (small animal room #2-302) at Hoseo University Safety Evaluation Center, set under environmental conditions: temperature of 22±3° C.; relative humidity of 50±20%; ventilation frequency of 10 to 15 times/hour, illumination for 12 hours; and illuminance of 150 Lux to 300 Lux, and then used in an experiment.
4 experimental animals were accommodated in each of polycarbonate cages (270×500×200 mm, KYERYONG SCIENCE). Feed (5053-Picolab Rodent 20, PMI Nutrition International) and drinking water (ultraviolet sterilized filtered water) were allowed to ingest freely. All procedures of the experiment were conducted after approved by the Ethics Committee of the Hoseo University Safety Evaluation Center (HTRC-15-19).
B. Dermatitis induction: Hairs on the back of each mouse were removed and maintained for 24 hours, and then 150 μl of a 1% 2,4-dinitrochlorobenzene(DNCB) solution (acetone: olive oil=3:1) was applied on the hair-removed site once a week for 3 weeks. After week 3, the DNCB solution was applied on the site twice a week for 3 weeks to induce atopic dermatitis.
C. Treatment: Mice were divided into 6 groups, and 0.5% DMSO was applied on animals as a control and 200 μl of each of 0.01 μM, 0.1 μM, and 1 μM test material was applied on animals as experimental groups for 3 weeks. 50 μl of 0.1% dexamethasone dissolved in a crude alcohol was applied on animals as a positive control at intervals of 2 days.
D. Biopsy: After application of the test material was completed, the dorsal skin of each experimental animal was incised under heart anesthesia, some of them were rapidly frozen using liquid nitrogen and stored at −70° C. before analysis, and the remainder was fixed with 10% neutral buffered formalin for 24 hours. The fixed tissues were prepared into slides through general tissue processing, and then subjected to hematoxylin & eosin (H&E) staining to measure the thickness of the epidermal layer. In addition, toluidine blue staining was performed to observe a quantitative change of mast cells. While the stained tissues were observed by an optical microscope, the thickness of the epidermal layer and the number of mast cells were obtained using an image analyzer (Olympus DP-21).
E. IgE level measurement: IgE concentration in blood was measured by (SHIBAYAGI, Japan) using serum collected when autopsy was performed. 50 μL of an IgE standard solution and the sample were placed in antibody-attached 96 wells and allowed to react for 2 hours, and then 50 μL of a biotin-conjugated anti-IgE antibody solution was added to each well and allowed to react for 2 hours. Thereafter, the resulting sample was reacted with a HRP-avidin solution for 1 hour and a chromogenic substrate (TBM) reagent for 20 minutes, and the reaction was stopped using a reaction stopper. Absorbance of the sample was measured at 450 nm using ELISA (Molecular devices Emax).

[4] = DNCB-applied balb/c mice skin tissue, RT-PCR
[5] = DNCB-applied balb/c mice, concentration of 0.011 μM (so in the source)

Cl.N=C(N)NC(=N)Nc1ccc(Cl)cc1 [IPS-07001]
IL-6 protein expression (antibody chip, INR) [1]: decrease | IL-22 protein expression (antibody chip, INR) [1]: decrease | IL-33 protein expression (antibody chip, INR) [1]: decrease | IL-6 level in dorsal skin [2]: significantly regulated | visual changes of skin symptoms ([3]; 0.01 μM, topical, 3 weeks): No significant visual changes | epidermal thickness ([3]; 0.01 μM): 70.8±4.3 μm | number of mast cells in skin tissue ([3]; 0.1 μM, p<0.01): 25.8±3.5 | visual changes of skin symptoms ([3]; 0.1 μM, topical, 3 weeks): No significant visual changes | epidermal thickness ([3]; 0.1 μM): 74.4±7.1 μm | blood IgE level ([3]; 0.1 μM, p<0.05): 632.6±138.8 | number of mast cells in skin tissue ([3]; 1 μM, p<0.01): 23.8±5.1 | erythema, excoriation, and lichenification (visual observation) ([3]; 1 μM, topical, 3 weeks, compared to DNCB group): reduced | epidermal thickness ([3]; 1 μM): 60.0±8.2 μm | blood IgE level ([3]; 1 μM, p<0.01): 537.9±132.9 | IL-6 mRNA expression in atopic skin lesions [3, 4]: regulated | TARC mRNA expression in atopic skin lesions [3, 4]: regulated | TNF-a mRNA expression in atopic skin lesions [3, 4]: regulated | IL-4 level in dorsal skin [3, 5]: significantly regulated | serum IL-4 level [3, 5]: significantly regulated | serum IgE level [3, 5]: significantly regulated | serum histamine level [3, 5]: significantly regulated
